One assay deals with Fatty acid synthase (Homo sapiens, UniProt P49327). Briefly: inhibition of human FAS-TE enzyme activity – biochemical, kinetic fluorescence intensity, dose response (AID 624326).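 Further: rate of fluorescence rise from hydrolysis of a fluorogenic O-methyl fluorescein ester substrate.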 Type of assay: functional.
Assay [1] concerns the target Lysine-specific demethylase 4C (Homo sapiens, UniProt Q9H3R0). Briefly: inhibition of JMJD2C H3K9me3 demethylation – biochemical, DELFIA europium, cherry-picked samples, dose response (AID 488835). Type of assay: functional.
The nature of assay [2]: viability loss in HeLa cells – cytotoxicity control for MgcRacGAP inhibitor project, dose response (AID 624300). Type of assay: functional.
In a further assay the test system is HeLa. Briefly: viability loss in HeLa cells – cell-based, 24 h, cherry-picked samples, cytotoxicity control, dose response (AID 504726).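 Further: potency for cytotoxicity as loss of luminescence signal.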 It counts as functional. The settings on record: Homo sapiens.
For assay [3], the target named is Matrix metalloproteinase-14 (Homo sapiens, UniProt P50281). Briefly: Dose Response confirmation of uHTS hits for a small molecule inhibitors of MT1-MMP activation in a fluorescence assay set 2. It counts as functional.
The next assay addresses T1, Caspase-7 (Homo sapiens, UniProt P55210).
T1 sequence (P55210 whole entry): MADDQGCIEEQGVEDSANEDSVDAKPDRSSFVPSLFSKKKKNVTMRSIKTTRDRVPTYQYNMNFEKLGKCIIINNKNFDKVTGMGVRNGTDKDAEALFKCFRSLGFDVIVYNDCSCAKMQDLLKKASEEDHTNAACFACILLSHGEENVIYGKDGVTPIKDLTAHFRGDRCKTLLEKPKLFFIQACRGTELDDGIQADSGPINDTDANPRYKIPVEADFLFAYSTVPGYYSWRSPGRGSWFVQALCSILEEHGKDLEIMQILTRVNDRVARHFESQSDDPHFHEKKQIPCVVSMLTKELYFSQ
Briefly: caspase-7 enzyme inhibition, selectivity check – biochemical, DEVD-R110 fluorescence, cherry-pick, selectivity assay for caspase-6 inhibitor project, dose response (AID 743295). It counts as functional.

Assay [4] concerns the target 1-phosphatidylinositol 4,5-bisphosphate phosphodiesterase beta-3 (Homo sapiens, UniProt Q01970). Briefly: Fluorescence-based biochemical high throughput dose response assay to identify inhibitors of phospholipase C isozymes (PLC-B3).
Another assay deals with Streptococcus. Briefly: GAS UMAA2166 growth inhibition – luminescence, BacTiterGlo, counter-screen for streptokinase expression inhibitor project, dose response (AID 1915).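 Further: potency for reduction of bacterial viability or growth.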 It counts as functional, organism-based. (In general: The purpose of a counterscreen is to sort out artefacts and off-target activity.)
The subject of another assay is Jurkat. Briefly: blockers of NF-kB activation in T cells – Jurkat, luciferase reporter, luminescence, B- and T-cell, dose response (AID 489004).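 Further: NF-kB luciferase reporter Jurkat cells stimulated with PMA plus ionomycin.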 Type of assay: functional, cell-based. The settings on record: Homo sapiens. (In general: In a reporter assay the amount or activity of a reporter protein is the signal.)
Assay [5] concerns the target T2, Apoptotic protease-activating factor 1 (Homo sapiens, UniProt O14727).
T2 sequence (O14727 whole entry): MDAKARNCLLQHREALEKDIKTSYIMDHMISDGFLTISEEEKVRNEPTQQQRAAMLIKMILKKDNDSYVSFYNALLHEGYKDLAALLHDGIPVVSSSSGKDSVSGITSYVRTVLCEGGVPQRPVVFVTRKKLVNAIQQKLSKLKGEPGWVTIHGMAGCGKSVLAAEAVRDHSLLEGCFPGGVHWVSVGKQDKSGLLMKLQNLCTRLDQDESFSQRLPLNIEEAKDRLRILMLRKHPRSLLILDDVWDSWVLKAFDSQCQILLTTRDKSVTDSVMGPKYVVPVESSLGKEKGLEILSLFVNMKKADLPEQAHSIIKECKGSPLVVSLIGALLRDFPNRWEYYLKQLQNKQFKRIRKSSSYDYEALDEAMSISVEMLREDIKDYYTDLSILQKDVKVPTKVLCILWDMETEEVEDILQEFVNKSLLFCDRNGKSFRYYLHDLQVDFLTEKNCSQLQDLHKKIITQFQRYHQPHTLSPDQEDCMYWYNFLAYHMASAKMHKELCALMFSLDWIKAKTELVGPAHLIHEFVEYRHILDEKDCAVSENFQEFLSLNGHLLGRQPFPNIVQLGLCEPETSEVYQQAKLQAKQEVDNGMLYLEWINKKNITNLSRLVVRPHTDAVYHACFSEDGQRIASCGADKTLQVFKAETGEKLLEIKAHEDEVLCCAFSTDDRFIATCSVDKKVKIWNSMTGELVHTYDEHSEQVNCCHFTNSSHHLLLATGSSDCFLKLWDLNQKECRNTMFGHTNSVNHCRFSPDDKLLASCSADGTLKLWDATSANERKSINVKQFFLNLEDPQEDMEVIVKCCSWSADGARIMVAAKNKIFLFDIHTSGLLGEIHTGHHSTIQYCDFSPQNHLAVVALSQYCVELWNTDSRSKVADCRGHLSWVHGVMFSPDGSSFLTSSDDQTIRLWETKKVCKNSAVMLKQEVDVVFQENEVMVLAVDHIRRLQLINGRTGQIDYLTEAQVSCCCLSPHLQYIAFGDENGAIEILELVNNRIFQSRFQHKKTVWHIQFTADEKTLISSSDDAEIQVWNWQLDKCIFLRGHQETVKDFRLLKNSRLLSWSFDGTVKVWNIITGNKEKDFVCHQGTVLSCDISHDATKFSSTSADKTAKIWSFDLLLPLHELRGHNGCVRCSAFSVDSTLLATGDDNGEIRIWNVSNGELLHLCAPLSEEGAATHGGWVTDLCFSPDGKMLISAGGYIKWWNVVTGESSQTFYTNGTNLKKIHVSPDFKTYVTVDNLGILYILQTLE
Type of assay: functional.

Assay [6] can be described thus: viability loss in CEM21 cells – cell-based, CellTiter-Glo luminescence, cherry-picked, cytotoxicity control for viral fusion inhibitor project, dose response (AID 652042).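 Further: potency for signal decrease meaning cytotoxicity.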 Type of assay: functional. On the technique in general: In ATP-based viability assays light output follows the ATP content of the culture.

Data on two molecules can be found in ChEMBL document CHEMBL1201862, “PubChem BioAssay data set” (2004).

The structures appear in SMILES notation. Activity calls are given as the source filed them. A value given as a limit tells only on which side of the number the result lay.

Chain of Fatty acid synthase (P49327 whole entry): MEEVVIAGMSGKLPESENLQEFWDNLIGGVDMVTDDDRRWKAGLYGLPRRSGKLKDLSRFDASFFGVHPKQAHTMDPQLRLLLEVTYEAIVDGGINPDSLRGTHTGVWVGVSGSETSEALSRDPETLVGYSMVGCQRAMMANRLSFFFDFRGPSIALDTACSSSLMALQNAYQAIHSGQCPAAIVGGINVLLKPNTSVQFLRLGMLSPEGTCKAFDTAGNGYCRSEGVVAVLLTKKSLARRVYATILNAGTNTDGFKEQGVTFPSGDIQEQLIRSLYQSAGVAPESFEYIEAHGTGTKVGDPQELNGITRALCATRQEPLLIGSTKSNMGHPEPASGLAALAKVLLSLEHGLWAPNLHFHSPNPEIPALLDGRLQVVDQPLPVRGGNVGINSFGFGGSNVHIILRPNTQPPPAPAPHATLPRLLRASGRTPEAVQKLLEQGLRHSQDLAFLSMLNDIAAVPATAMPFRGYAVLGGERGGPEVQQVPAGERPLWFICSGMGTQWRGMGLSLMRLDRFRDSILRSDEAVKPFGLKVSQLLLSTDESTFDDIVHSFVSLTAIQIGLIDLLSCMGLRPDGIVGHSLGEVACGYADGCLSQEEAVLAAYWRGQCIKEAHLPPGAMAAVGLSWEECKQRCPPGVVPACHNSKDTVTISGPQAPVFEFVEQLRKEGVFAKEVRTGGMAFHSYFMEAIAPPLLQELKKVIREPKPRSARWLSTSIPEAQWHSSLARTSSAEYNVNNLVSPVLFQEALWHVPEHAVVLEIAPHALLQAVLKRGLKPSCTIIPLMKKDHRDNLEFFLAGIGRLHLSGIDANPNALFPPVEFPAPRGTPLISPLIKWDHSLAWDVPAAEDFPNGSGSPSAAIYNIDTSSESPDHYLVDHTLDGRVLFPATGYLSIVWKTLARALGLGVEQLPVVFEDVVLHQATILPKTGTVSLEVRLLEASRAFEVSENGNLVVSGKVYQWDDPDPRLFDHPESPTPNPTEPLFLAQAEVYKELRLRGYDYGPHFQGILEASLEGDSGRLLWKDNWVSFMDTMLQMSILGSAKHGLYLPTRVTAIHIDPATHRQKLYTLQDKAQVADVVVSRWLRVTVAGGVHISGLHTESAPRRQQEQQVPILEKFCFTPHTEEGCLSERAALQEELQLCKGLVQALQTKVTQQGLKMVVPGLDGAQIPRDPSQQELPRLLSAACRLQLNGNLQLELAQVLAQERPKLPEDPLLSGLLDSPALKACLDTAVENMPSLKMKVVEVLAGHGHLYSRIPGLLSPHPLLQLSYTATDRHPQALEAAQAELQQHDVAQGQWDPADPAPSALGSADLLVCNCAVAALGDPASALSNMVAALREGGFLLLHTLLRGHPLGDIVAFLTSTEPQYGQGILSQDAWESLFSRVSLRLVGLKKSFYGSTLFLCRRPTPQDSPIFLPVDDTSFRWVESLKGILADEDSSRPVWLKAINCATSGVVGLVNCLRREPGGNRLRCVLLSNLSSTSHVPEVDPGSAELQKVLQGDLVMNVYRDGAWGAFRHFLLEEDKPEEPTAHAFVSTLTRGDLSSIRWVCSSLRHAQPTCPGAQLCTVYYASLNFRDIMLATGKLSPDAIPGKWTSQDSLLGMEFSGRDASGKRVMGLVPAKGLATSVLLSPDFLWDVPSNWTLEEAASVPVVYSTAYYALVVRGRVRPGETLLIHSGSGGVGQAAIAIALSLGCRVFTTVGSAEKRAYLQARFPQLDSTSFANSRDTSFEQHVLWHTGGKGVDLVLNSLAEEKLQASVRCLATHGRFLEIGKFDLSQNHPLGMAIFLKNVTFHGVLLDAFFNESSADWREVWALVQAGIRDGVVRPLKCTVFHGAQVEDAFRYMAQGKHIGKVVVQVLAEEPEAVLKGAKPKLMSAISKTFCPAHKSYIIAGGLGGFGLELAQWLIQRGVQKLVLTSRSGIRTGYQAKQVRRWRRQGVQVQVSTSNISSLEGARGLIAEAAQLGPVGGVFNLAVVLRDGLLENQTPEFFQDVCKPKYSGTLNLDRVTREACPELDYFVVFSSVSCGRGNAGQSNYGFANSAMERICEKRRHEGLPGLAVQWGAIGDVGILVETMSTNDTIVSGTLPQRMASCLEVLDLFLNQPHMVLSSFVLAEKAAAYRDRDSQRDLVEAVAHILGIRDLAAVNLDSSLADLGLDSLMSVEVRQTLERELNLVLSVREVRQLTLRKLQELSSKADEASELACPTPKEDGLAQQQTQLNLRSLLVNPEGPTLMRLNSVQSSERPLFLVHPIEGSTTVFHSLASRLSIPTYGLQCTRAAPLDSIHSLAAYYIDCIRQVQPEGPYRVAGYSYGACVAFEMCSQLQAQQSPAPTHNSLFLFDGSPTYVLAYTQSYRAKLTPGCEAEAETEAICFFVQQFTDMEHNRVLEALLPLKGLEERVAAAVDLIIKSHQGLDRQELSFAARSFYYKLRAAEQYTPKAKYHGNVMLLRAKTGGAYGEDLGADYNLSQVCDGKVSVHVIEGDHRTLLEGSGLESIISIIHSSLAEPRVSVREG
Chain of Lysine-specific demethylase 4C (Q9H3R0 whole entry): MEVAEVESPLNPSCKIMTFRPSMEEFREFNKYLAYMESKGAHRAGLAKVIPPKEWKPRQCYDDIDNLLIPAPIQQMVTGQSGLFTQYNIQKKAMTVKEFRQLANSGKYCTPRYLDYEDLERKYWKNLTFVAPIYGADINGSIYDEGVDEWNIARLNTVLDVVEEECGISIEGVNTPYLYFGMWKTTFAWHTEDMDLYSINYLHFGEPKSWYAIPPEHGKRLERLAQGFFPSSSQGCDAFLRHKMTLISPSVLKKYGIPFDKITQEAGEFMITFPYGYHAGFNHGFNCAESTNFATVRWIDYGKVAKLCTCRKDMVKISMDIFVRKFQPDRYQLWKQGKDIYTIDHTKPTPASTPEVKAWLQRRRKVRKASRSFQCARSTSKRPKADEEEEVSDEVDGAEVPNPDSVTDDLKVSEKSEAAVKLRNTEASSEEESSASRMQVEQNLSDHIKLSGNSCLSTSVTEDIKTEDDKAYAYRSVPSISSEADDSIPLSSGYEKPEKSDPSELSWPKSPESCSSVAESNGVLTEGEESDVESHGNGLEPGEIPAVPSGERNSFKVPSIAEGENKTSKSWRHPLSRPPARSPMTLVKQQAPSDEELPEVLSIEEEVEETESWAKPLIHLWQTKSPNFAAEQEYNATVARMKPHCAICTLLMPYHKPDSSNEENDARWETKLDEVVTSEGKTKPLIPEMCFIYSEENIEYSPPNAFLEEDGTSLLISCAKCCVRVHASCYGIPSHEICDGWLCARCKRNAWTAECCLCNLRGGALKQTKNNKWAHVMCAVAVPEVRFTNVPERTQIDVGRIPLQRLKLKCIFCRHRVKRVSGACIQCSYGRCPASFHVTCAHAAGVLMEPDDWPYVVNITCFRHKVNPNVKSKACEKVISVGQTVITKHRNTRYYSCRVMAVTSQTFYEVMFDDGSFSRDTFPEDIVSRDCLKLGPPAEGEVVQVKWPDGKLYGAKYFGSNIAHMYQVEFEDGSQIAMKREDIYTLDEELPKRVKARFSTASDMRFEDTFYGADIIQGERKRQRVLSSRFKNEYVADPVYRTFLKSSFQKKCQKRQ
Chain of 1-phosphatidylinositol 4,5-bisphosphate phosphodiesterase beta-3 (Q01970 whole entry): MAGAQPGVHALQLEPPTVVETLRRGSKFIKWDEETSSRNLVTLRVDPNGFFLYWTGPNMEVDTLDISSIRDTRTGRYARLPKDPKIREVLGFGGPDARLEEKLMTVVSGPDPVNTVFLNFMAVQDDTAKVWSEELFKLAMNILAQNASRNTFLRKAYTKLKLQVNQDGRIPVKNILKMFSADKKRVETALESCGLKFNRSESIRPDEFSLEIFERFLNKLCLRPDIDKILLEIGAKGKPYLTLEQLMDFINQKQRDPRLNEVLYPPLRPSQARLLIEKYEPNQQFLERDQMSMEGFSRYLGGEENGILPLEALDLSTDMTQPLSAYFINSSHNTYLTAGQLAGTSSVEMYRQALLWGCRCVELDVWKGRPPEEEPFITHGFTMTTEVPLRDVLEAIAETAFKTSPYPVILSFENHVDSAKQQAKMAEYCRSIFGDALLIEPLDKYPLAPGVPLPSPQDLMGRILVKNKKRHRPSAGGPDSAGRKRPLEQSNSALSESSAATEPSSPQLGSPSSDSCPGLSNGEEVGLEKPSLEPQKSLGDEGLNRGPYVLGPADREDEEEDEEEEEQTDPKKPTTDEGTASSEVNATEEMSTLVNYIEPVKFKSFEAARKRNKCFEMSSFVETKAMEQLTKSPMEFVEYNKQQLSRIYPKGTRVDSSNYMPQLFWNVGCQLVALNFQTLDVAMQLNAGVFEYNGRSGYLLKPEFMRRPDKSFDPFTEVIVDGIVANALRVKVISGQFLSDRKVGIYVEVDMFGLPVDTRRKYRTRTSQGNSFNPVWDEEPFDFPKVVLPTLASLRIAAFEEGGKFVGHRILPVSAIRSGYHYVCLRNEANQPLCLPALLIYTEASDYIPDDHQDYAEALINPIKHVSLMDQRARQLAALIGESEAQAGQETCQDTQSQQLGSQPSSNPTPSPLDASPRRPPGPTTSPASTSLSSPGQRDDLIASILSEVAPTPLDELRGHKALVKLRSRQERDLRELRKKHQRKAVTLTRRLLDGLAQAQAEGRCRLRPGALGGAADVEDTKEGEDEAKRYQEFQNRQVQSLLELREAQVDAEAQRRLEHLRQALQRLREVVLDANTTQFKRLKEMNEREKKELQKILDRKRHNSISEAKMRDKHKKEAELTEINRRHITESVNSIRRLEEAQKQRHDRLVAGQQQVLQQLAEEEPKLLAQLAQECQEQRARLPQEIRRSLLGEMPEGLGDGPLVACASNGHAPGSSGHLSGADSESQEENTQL

With `O=c1ccc2c(-c3ccccc3S(=O)(=O)O)c3ccc(O)c(O)c3oc-2c1O` [PYROGALLOL RED], the IC50 (usually the concentration that gives 50% inhibition) at Fatty acid synthase is 10.4 µM (active); in [3], 19.6 µM (active); in [4], > 40.8 µM (inactive). Moreover, the AC50 (commonly the concentration giving half of the maximal activity seen) is 1.78 µM (active) in assay [1], 8.94 µM (active) in the assay on HeLa and > 70 µM (inactive) at Caspase-7. In assay [2], the CC50 (commonly the concentration that lowers cell viability or growth by half) is 100 µM (active).

With `CCCCCCCCCCOC(=O)C[n+]1c(COc2ccccc2OC)n(C)c2ccccc21`, the concentration for a half-maximal effect (EC50) (as a rule, the concentration at which the effect is half-maximal) in the assay with Streptococcus was 12.7 µM (active). For the same molecule, the IC50 with Jurkat was 4.4 µM (active); in [5] it was 14.3 µM (active). The AC50 in assay [6] was 6.91 µM (active).
